Measurements published in patent US7335815B2, “Nucleic acid sequences to proteins involved in isoprenoid synthesis” (Calgene LLC, priority 1999, dated 2008).

Experiments:
[1] = test system: E. coli strain JC7623dxr:CAT; assay: growth of dxr-disrupted E. coli strain JC7623dxr:CAT (ME auxotrophy, complementation studies); type: cell-based, Escherichia coli; settings: strain JC7623dxr:CAT carrying plasmid pBAD-DXR or pBAD-GFPuv
From the text: The region extending from the 5′-region of the dxr gene to the 3′-flanking region of the yaeS gene was amplified by PCR using genomic DNA isolated from the wild type E. coli strain-W3110 (Kohara et al., 1987) and the primers P1(5′-CTCTGGATGT CATATGAAGCAACTC-3′ (SEQ ID NO:3); the underlined ATG corresponds to the translation start codon of the dxr gene) and P2 (5′-CCGCATAACACCGCCAACC-3′ (SEQ ID NO:4); located at the 3′-flanking region of the yaeS gene). The reaction mixture for the PCR was prepared in a final volume of 50 μl, containing the DNA template (100 ng), 0.5 μM of each primer, 200 μM of each deoxynucleoside triphosphate, 20 mM of Tris-HCl adjusted to pH 8.8, 2 mM Of MgSO4, 10 mM of KCI, 10 mM of (NH4)2SO4, 0.1 mg/ml of BSA and 0.1% Triton X-100. The sample was covered with mineral oil, incubated at 94° C. for 3 min and cooled to 80° C. Pfu DNA polymerase (1.25 units, Stratagene) was added and the reaction mixture was incubated for 30 cycles consisting of 45 sec at 94° C., 45 sec at 59° C. and 10 min at 72° C., followed by a final step of 10 min at 72° C. After amplification, adenines were added to the 3′ ends of the PCR product as indicated by the manufacturers protocol and the adenylated product was cloned into the pGEM-T vector (Promega), to create plasmid pMJ1. […]

[2] = background statement; cited from earlier work

| Compound | growth of strain on medium containing the substance [1] | vitamin E activity [2] [IU/mg] |
| --- | --- | --- |
| C[C@](O)(CO)[C@H](O)CO [ME, 2-C-methyl-D-erythritol] | grows on medium containing ME | – |
| Cc1c(C)c2c(c(C)c1O)CCC(C)(CCCC(C)CCCC(C)CCCC(C)C)O2 (stereo not drawn) [synthetic α-tocopherol, d,l-α-tocopherol] | – | 1.1 |
| Cc1c(C)c2c(c(C)c1O)CC[C@@](C)(CCC[C@H](C)CCC[C@H](C)CCCC(C)C)O2 [d-α-tocopherol] | – | 1.49 |
